# Measured values: ChEMBL document CHEMBL5096219, “Design, synthesis and biological evaluation of novel pyrazinone derivatives as PI3K/HDAC dual inhibitors” (Bioorg Med Chem, 2022)
# What was measured:
# [1] = target: T1, Protein deacetylase HDAC6 (Homo sapiens, UniProt Q9UBN7); experiment: Inhibition of HDAC6 (unknown origin)
# T1 sequence (Q9UBN7 whole entry): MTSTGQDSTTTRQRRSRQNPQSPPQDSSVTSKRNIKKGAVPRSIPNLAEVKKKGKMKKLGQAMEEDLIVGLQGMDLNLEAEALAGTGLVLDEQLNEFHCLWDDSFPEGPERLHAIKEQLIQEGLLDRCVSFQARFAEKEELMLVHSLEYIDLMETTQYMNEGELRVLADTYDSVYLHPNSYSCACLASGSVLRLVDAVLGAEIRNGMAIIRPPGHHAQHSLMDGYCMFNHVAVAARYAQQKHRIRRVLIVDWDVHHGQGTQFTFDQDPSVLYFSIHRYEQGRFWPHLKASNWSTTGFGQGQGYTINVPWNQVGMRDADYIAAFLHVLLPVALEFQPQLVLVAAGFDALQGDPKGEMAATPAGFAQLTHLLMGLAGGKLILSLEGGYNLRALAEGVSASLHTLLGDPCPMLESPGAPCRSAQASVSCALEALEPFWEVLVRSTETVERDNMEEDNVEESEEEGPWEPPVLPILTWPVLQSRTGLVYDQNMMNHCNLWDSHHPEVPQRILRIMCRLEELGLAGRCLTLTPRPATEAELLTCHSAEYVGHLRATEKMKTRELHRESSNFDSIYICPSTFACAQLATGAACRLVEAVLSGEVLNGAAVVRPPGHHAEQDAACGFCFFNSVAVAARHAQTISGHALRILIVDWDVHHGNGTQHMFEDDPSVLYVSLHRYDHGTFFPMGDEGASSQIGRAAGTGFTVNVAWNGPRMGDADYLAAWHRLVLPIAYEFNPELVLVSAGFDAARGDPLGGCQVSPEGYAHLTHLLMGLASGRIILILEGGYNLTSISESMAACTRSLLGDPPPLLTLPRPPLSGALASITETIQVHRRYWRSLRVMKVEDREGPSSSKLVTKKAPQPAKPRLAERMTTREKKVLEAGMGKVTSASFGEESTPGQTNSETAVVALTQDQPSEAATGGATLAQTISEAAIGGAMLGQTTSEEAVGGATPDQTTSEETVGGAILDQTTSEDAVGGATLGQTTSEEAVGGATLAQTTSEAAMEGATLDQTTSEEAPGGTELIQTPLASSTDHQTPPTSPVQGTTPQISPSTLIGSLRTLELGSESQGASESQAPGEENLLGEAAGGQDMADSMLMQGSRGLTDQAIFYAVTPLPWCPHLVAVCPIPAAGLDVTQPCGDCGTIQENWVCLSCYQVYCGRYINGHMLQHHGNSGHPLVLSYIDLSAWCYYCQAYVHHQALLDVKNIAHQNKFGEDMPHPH
# [2] = target: T2, Protein deacetylase HDAC6 (Homo sapiens) (UniProt Q9UBN7); settings: dose 100.0 nM
# T2 sequence (whole entry): T1 sequence (Q9UBN7 whole entry)
# Description: Inhibition of HDAC6 (unknown origin) at 100 nM
# MV4-11 [3] = experiment: Induction of apoptosis in human MV4-11 cells assessed as viable cells at 1 uM incubated for 48 hrs by Annexin V-FITC/PI staining based flow cytometry (reference value: 96.5%); type: functional; settings: read-out: Activity
# MV4-11 [4] = experiment: Induction of apoptosis in human MV4-11 cells assessed as early apoptotic cells at 1 uM incubated for 48 hrs by Annexin V-FITC/PI staining based flow cytometry (reference value: 0.95%); type: functional
# MV4-11 [5] = experiment: Induction of apoptosis in human MV4-11 cells assessed as late apoptotic cells at 1 uM incubated for 48 hrs by Annexin V-FITC/PI staining based flow cytometry (reference value: 2.04%); type: functional
# MV4-11 [6] = experiment: Induction of apoptosis in human MV4-11 cells assessed as necrotic cells at 1 uM incubated for 48 hrs by Annexin V-FITC/PI staining based flow cytometry (reference value: 0.51%); type: functional
# MV4-11 [7] = experiment: Induction of cell cycle arrest in human MV4-11 cells assessed as accumulation of cells at G0/G1 phase at 1 uM incubated for 48 hrs by […]PI staining based flow cytometry (reference value: 33.1%); type: functional
# MV4-11 [8] = experiment: Induction of cell cycle arrest in human MV4-11 cells assessed as accumulation of cells at S phase at 1 uM incubated for 48 hrs by […]PI staining based flow cytometry (reference value: 45.5%); type: functional
# MV4-11 [9] = experiment: Induction of cell cycle arrest in human MV4-11 cells assessed as accumulation of cells at G2/M phase at 1 uM incubated for 48 hrs by […]PI staining based flow cytometry (reference value: 11.5%); type: functional
# [10] = target: Phosphatidylinositol 4,5-bisphosphate 3-kinase catalytic subunit alpha isoform (Homo sapiens, UniProt P42336); experiment: Inhibition of PI3Kalpha (unknown origin) by mobility shift assay
# MV4-11 [11] = experiment: cells; type: functional, cell-based; settings: Homo sapiens, MV4-11, 72 h
# Description: Antiproliferative activity against human MV4-11 cells assessed as inhibition of cell proliferation incubated for 72 hrs by CCK8 assay
# HL-60 = experiment: cells; type: functional, cell-based; settings: Homo sapiens, HL-60, 72 h
# Description: Antiproliferative activity against human HL-60 cells assessed as inhibition of cell proliferation incubated for 72 hrs by CCK8 assay
# K562 = experiment: cells; type: functional, cell-based; settings: Homo sapiens, K562, 72 h
# Description: Antiproliferative activity against human K562 cells assessed as inhibition of cell proliferation incubated for 72 hrs by CCK8 assay
# Phosphatidylinositol 4,5-bisphosphate 3-kinase catalytic subunit alpha isoform, sequence (P42336 whole entry, canonical isoform): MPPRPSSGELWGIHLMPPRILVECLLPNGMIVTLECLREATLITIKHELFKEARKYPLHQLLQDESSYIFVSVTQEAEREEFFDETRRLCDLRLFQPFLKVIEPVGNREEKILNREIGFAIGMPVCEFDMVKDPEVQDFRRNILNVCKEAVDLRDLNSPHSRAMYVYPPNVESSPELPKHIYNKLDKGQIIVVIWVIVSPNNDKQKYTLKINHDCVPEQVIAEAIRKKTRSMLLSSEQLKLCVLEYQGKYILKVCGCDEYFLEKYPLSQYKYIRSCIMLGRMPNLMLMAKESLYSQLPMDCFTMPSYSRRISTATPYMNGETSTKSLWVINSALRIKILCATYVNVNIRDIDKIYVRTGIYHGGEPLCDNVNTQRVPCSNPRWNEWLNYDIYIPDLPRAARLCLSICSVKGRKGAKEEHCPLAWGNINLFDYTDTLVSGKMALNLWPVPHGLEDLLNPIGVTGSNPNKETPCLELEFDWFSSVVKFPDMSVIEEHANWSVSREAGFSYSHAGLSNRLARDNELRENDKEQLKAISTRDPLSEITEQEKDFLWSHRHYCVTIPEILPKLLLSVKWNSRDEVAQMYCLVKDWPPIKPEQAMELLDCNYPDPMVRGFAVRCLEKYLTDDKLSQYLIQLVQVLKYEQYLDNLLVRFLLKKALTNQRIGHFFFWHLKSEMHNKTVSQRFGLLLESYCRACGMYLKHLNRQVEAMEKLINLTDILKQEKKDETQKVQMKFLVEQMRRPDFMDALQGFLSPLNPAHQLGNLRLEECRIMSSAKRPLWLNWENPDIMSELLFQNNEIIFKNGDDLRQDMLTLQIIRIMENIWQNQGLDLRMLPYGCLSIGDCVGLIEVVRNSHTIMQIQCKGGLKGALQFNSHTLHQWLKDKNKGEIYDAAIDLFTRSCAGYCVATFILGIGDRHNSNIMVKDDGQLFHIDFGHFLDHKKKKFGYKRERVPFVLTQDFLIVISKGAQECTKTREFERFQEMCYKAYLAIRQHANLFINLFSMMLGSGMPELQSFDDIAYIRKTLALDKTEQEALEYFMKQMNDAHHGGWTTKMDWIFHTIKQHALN
structure (smiles),measurement,setting,value
Nc1ccc(-c2cn(Cc3ccc(C(=O)NO)cc3)c(=O)c(N3CCOCC3)n2)cn1,IC50,[1],12 nM
same,inhibition,[2],91%
O=C(CCCCCCC(=O)Nc1ccccc1)NO [VORINOSTAT],viability at 1 µM,MV4-11 [3],76.1%
same,Activity,MV4-11 [4],9.99%
same,Activity,MV4-11 [5],12.9%
same,Activity,MV4-11 [6],0.93%
same,Activity,MV4-11 [7],43.2%
same,Activity,MV4-11 [8],5.62%
same,Activity,MV4-11 [9],28.6%
CNc1ncc(-c2cn(Cc3ccc(C(=O)NO)cc3)c(=O)c(N3CCOCC3)n2)cn1,IC50,[10],336 nM
same,IC50,[1],9.1 nM
same,IC50,MV4-11 [11],1370 nM
same,IC50,HL-60,4290 nM
same,IC50,K562,6120 nM
O=C(NO)c1ccc(Cn2cc(-c3ccc(CO)cc3)nc(N3CCOCC3)c2=O)cc1,IC50,[1],15 nM
Nc1ncc(-c2cn(CCCCCC(=O)NO)c(=O)c(N3CCOCC3)n2)cn1,IC50,[10],157 nM
same,IC50,[1],109 nM
same,IC50,MV4-11 [11],19700 nM
same,IC50,HL-60,12700 nM
same,IC50,K562,> 50000 nM
same,inhibition,[2],45%
Nc1ncc(-c2cn(Cc3cccc(C(=O)NO)c3)c(=O)c(N3CCOCC3)n2)cn1,IC50,[1],650 nM
Cc1noc(C)c1-c1cn(Cc2ccc(C(=O)NO)cc2)c(=O)c(N2CCOCC2)n1,IC50,[1],32 nM
O=C(NO)c1ccc(Cn2cc(-c3cccnc3)nc(N3CCOCC3)c2=O)cc1,IC50,[1],15 nM
same,inhibition,[2],92%
Nc1ncc(-c2cn(Cc3ccc(C(=O)NO)cc3)c(=O)c(N3CCOCC3)n2)cn1,IC50,[10],197 nM
same,IC50,[1],15 nM
same,IC50,MV4-11 [11],4850 nM
same,IC50,HL-60,21000 nM
same,IC50,K562,13800 nM
same,inhibition,[2],92%
Nc1ncc(-c2cc(N3CCOCC3)c(=O)n(Cc3ccc(C(=O)NO)cc3)c2)cn1,IC50,[1],20 nM
same,inhibition,[2],95%
Nc1ncc(-c2cn(Cc3ccc(C(=O)NO)cc3)c(=O)c(N3CCCCC3)n2)cn1,IC50,[1],4.2 nM
Cn1cc(-c2cn(Cc3ccc(C(=O)NO)cc3)c(=O)c(N3CCOCC3)n2)cn1,IC50,[1],21 nM
Nc1ncc(-c2cn(CCCCCCC(=O)NO)c(=O)c(N3CCOCC3)n2)cn1,IC50,[10],127 nM
same,IC50,[1],54 nM
same,IC50,MV4-11 [11],1980 nM
same,IC50,HL-60,18400 nM
same,IC50,K562,3840 nM
same,inhibition,[2],73%
O=C(NO)c1ccc(Cn2cc(-c3cccc(O)c3)nc(N3CCOCC3)c2=O)cc1,IC50,[10],467 nM
same,IC50,[1],23 nM
same,IC50,MV4-11 [11],90 nM
same,IC50,HL-60,1140 nM
same,IC50,K562,3840 nM
same,inhibition,[2],94%
Nc1ncc(-c2cc(N3CCOCC3)c(=O)n(Cc3ccc(C(=O)NO)cc3)n2)cn1,IC50,[1],13 nM
same,inhibition,[2],94%
Nc1ncc(-c2cn(Cc3ccc(C(=O)NO)cc3)c(=O)c(Nc3ccccc3)n2)cn1,IC50,[1],6.9 nM
O=C(NO)c1ccc(Cn2cc(-c3cccc(CO)c3)nc(N3CCOCC3)c2=O)cc1,IC50,[1],14 nM
same,IC50,MV4-11 [11],70 nM
same,IC50,HL-60,580 nM
same,IC50,K562,590 nM
Nc1cc(C(F)(F)F)c(-c2cc(N3CCOCC3)nc(N3CCOCC3)n2)cn1 [BUPARLISIB],IC50,MV4-11 [11],730 nM
same,IC50,HL-60,1510 nM
same,IC50,K562,730 nM
same,viability at 1 µM,MV4-11 [3],89%
same,Activity,MV4-11 [4],1.37%
same,Activity,MV4-11 [5],6.42%
same,Activity,MV4-11 [6],3.19%
same,Activity,MV4-11 [7],48.1%
same,Activity,MV4-11 [8],34.7%
same,Activity,MV4-11 [9],9.96%
O=C(NO)c1ccc(Cn2cc(-c3ccoc3)nc(N3CCOCC3)c2=O)cc1,IC50,[1],7.9 nM
CCCn1cc(-c2cnc(N)nc2)nc(N2CCOCC2)c1=O,IC50,[10],25 nM
O=C(NO)c1ccc(Cn2cc(-c3ccc(O)cc3)nc(N3CCOCC3)c2=O)cc1,IC50,[1],14 nM
same,inhibition,[2],94%
CN1CCN(c2nc(-c3cnc(N)nc3)cn(Cc3ccc(C(=O)NO)cc3)c2=O)CC1,IC50,[1],4.2 nM
Nc1ccc(-c2cn(Cc3ccc(C(=O)NO)cc3)c(=O)c(N3CCOCC3)n2)cc1,IC50,[1],13 nM
same,inhibition,[2],101%
Nc1ncc(-c2cn(CCCCCCCC(=O)NO)c(=O)c(N3CCOCC3)n2)cn1,IC50,[10],278 nM
same,IC50,[1],194 nM
same,IC50,MV4-11 [11],1520 nM
same,IC50,HL-60,9870 nM
same,IC50,K562,4560 nM
same,inhibition,[2],27%
O=C(NO)c1ccc(Cn2cc(-c3cncnc3)nc(N3CCOCC3)c2=O)cc1,IC50,[1],35 nM
same,inhibition,[2],69%
COC1CCN(c2nc(-c3cnc(N)nc3)cn(Cc3ccc(C(=O)NO)cc3)c2=O)CC1,IC50,[1],7.4 nM
O=C(NO)c1ccc(Cn2cc(-c3cn[nH]c3)nc(N3CCOCC3)c2=O)cc1,IC50,[1],30 nM
